The structures appear in SMILES notation. Active and inactive are the calls of the source. The rule behind the calls is not given here. Bounds are passed on as bounds.

The target in the assay is Chaperone protein DnaK (Escherichia coli (strain K12)) (UniProt P0A6Y8). In words: binders of DnaK substrate-binding domain, biophysical, NMR, chaperone (AID 1033). The following applies: Purified DnaK SBD, NMR ligand binding.
Sequence of Chaperone protein DnaK (Escherichia coli (strain K12)) (P0A6Y8 whole entry, looked up, the tested form may be a part): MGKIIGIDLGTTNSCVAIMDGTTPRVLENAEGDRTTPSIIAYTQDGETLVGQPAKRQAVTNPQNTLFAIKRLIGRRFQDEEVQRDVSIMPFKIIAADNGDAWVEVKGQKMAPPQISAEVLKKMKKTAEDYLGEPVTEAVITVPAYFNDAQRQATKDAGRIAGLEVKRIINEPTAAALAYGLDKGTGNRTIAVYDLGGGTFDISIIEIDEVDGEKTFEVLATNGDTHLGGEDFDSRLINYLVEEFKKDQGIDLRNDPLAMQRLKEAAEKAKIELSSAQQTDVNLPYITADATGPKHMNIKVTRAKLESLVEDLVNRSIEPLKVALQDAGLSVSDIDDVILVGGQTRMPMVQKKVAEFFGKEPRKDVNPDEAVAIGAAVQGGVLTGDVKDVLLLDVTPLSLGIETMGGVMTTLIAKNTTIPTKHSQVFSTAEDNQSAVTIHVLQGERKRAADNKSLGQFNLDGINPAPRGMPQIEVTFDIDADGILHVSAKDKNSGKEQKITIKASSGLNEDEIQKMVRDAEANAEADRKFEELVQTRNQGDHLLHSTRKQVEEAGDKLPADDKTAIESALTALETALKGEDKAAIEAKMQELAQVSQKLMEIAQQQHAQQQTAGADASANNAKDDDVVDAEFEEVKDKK
For the compound `Cc1ccc(NC(=O)CN2C(=O)CSC2=O)cc1`, the Kd was > 4 mM (inactive).
For the compound `COc1cc(OC)c2c(c1)O[C@H](c1ccc(OC)c(OC)c1)[C@@H](O)C2`, the Kd was > 4 mM (inactive).
Take `c1coc(-c2nc(-c3ccncc3)no2)c1`: the Kd was > 4 mM (inactive).
As to `CN1CCC(N2CCOCC2)CC1`, the Kd is > 4 mM (inactive).
With `COc1ccc(NC(=O)C(N)=O)cc1Cl`, the Kd was > 4 mM (inactive).
To `O=C(O)c1cncc(-c2cccs2)c1` belongs > 4 mM (inactive); to `C=C1CSc2nc(=O)c3c(C)c(C)sc3n21`, > 4 mM (inactive).
Next, `O=C1c2ccncc2C(=O)N1CNc1ccccn1`: > 4 mM (inactive); `COC(=O)C[C@H]1C(C)(C)C(=O)[C@@H]2CC3C4=CC(=O)O[C@@H](c5ccoc5)[C@]4(C)CCC3C1(C)C2=O` (some centres not stated): > 4 mM (inactive).
Next, `O=C(Nc1ccc2c(c1)OCO2)c1ccc(=O)[nH]n1`: > 4 mM (inactive); `CSc1nc(C)cc(-n2ccc(=O)[nH]c2=O)n1`: > 4 mM (inactive).
Take `O=C1NC(=O)C(Cc2cccs2)C(=O)N1`: the Kd is > 4 mM (inactive).
With `CCC(=O)Nc1ccc(-c2nn3c(C)nnc3s2)cc1`, the Kd was > 4 mM (inactive).
As to `CC(=O)NC(=S)Nc1ccccc1N1CCOCC1`, the Kd was > 4 mM (inactive).
Turning to `C[C@@H]1OC(O[C@H]2[C@H](OC(=O)[C@]34CCC(C)(C)CC3C3=CCC5[C@@]6(C)CC[C@H](OC7O[C@@H](C)[C@H](O[C@@H]8OC[C@@H](O)[C@H](O)[C@H]8O)[C@@H](O)[C@H]7O)C(C)(C)C6CC[C@@]5(C)[C@]3(C)CC4O)OC[C@H](O)[C@H]2O)[C@H](O)[C@H](O)[C@H]1O[C@@H]1O[C@H](CO)[C@@H](O)[C@H](O)[C@H]1O` (some centres not stated), the Kd is > 4 mM (inactive).
To `Nc1cc(C(=O)O)ccc1N1CCCCCC1` belongs > 4 mM (inactive); to `O=C(Nc1ccc(F)cc1F)c1ccco1`, > 4 mM (inactive).
To `CC(=O)CS(=O)(=O)c1ccccc1` belongs > 4 mM (inactive); to `Cc1nc2nc(Cc3ccccc3)nn2c(C)c1Cl`, > 4 mM (inactive); to `O=c1[nH]c(CN2CCN(CCO)CC2)nc2ccccc12`, > 4 mM (inactive).
Next, `Cc1occc1C(=O)NCc1ccncc1`: > 4 mM (inactive).
Regarding `CC(=O)Nc1ccccc1OCC(N)=O`, the Kd was > 4 mM (inactive).
Next, `C=C1C(=O)O[C@@H]2C[C@@]3(C)CCC[C@H](C)C3=C[C@H]12`: > 4 mM (inactive).
Turning to `CC(=O)C1=C(O)C(=O)NC1c1ccccc1` (configuration not stated), the Kd is > 4 mM (inactive).
Next, `NC(=O)CSc1nnnn1-c1ccccc1`: > 4 mM (inactive); `OCc1cc2ccccc2o1`: > 4 mM (inactive).
Take `Cc1cc([N+](=O)[O-])cc[n+]1[O-]`: the Kd is > 4 mM (inactive).
To `O=C(Nc1ccccc1Cl)c1cnccn1` belongs > 4 mM (inactive); to `COc1cccc(NC(=O)c2cnn(C)c2Cl)c1`, > 4 mM (inactive); to `Cn1c(=O)[nH]c2nc[nH]c2c1=O`, > 4 mM (inactive).
For `COc1cc(CNC(=O)CCCC/C=C/C(C)C)ccc1O`, the Kd is > 4 mM (inactive).
For the compound `O=C(NC1CCS(=O)(=O)C1)c1cccs1` (configuration not stated), the Kd is > 4 mM (inactive).
To `NC(=O)CSc1nc2ccccc2c(=O)[nH]1` belongs > 4 mM (inactive); to `COc1cc(C2NC(=S)NC(C)=C2C(C)=O)ccc1O` (configuration not stated), > 4 mM (inactive).
To `CCOC(=O)c1csc(C)n1` belongs > 4 mM (inactive); to `Nc1cccc(-n2cnnn2)c1`, > 4 mM (inactive); to `COc1ccccc1NC(=O)C1CCCCC1`, > 4 mM (inactive).
To `C[C@H]1C[C@@H](O)[C@]2(O)[C@@]13CC(=O)OC[C@@]2(C)[C@](C)(O)C(=O)C3` belongs > 4 mM (inactive).
As for `Cc1ccc(-n2nnnc2SCC(N)=O)c(C)c1`, the Kd is > 4 mM (inactive).
Next, `CC(=O)OCC[C@H](C)CCC=C(C)C`: > 4 mM (inactive); `CC(=O)O[C@@H]1CC2C(C)(C)C=CC(=O)[C@]2(C)C2CC[C@@]3(C)[C@H](c4ccoc4)OC(=O)C4OC43[C@@]21C` (some centres not stated): > 4 mM (inactive); `NC(=O)NC1C=CS(=O)(=O)C1` (configuration not stated): > 4 mM (inactive).
To `CCCCCCCCCCCCCCC(C(=O)OC)C(O)(CC(=O)OC)C(=O)OC` (configuration not stated) belongs > 4 mM (inactive); to `N#Cc1sc2nc3c(c(-c4cccnc4)c2c1N)CCC3`, > 4 mM (inactive).
Take `O=C(O)c1ccc(Nc2nncc(=O)[nH]2)cc1`: the Kd was > 4 mM (inactive).
Next, `CC(C)(C)c1cc(N)n[nH]1`: > 4 mM (inactive); `CCSc1nnc2[nH]c(=O)cc(C)n12`: > 4 mM (inactive); `C=C[C@@](C)(O)CCC1C(=C)C[C@H](OC(C)=O)C2C(C)(C)CCCC12C` (some centres not stated): > 4 mM (inactive).
To `O=S1(=O)CCC(NC(=S)Nc2ccccc2)C1` (configuration not stated) belongs > 4 mM (inactive).
Turning to `O=C(Nc1ccccc1)c1cccc(N2C(=O)CCC2=O)c1`, the Kd was > 4 mM (inactive).
Take `CC(=O)Nc1ccc(C(=O)NC2CCSC2=O)cc1` (configuration not stated): the Kd was > 4 mM (inactive).
As for `CC(C)c1ccc2c(c1O)CC[C@H]1C3=C(CC[C@]21C)C(=O)OC3`, the Kd is > 4 mM (inactive).
As for `COC(=O)c1ccc2nccnc2c1`, the Kd was > 4 mM (inactive).
To `COc1cccc2c(=O)n(CC(N)=O)ccc12` belongs > 4 mM (inactive).
Consider `O=C(CNC(=O)c1cccs1)NC1=NCCS1`, for which the Kd was > 4 mM (inactive).
Next, `Cc1cc(C(=O)NCc2cccnc2)no1`: > 4 mM (inactive).
In the case of `COc1ccc(NC(=O)c2ccc[n+]([O-])c2)cc1`, the Kd was > 4 mM (inactive).
Turning to `Cc1ccc(C)n1NC(=O)c1cccs1`, the Kd is > 4 mM (inactive).
Next, `CS(=O)(=O)c1ccc(N)cc1`: > 4 mM (inactive).
For the compound `CNC(=O)COc1cccc2c1CCNC2=O`, the Kd was > 4 mM (inactive).
To `Cc1occc1C(=O)Nc1nnc(C(F)(F)F)s1` belongs > 4 mM (inactive); to `O=C(O)CS(=O)(=O)c1ccccc1`, > 4 mM (inactive); to `COc1cccc(Oc2ccc(N)cn2)c1`, > 4 mM (inactive).
Take `Cc1nnc2ccc(N3CCCC3)nn12`: the Kd was > 4 mM (inactive).
Next, `NCc1cc2ccccc2s1`: > 4 mM (inactive); `OCCCc1nc2ccccc2[nH]1`: > 4 mM (inactive); `O=C(NCC1CCCCC1)c1ccco1`: > 4 mM (inactive).
To `COc1c(C(C)C)oc2cc3oc(=O)ccc3cc12` belongs > 4 mM (inactive).
Next, `O=C1CC(=O)N(c2cccc(Cl)c2)N1`: > 4 mM (inactive).
As for `C#CCCCCCCCCCCCC(O)CC(O)COC(C)=O` (configuration not stated), the Kd was > 4 mM (inactive).
Next, `C=CCCCCCCCCCCCC(O)CC(O)COC(C)=O` (configuration not stated) (tested in a mixture with another compound): > 4 mM (inactive).
With `c1ccc(SCc2nc(-c3cccnc3)no2)cc1`, the Kd is > 4 mM (inactive).

By Kd is commonly meant the constant that tells how readily two partners part at equilibrium.

The values are drawn from PubChem BioAssay AID1033 (Sanford-Burnham Center for Chemical Genomics, 2008).
